pIC50: −log10 of the molar value.
How the values were obtained:
[1] = molecular target: T1, Human Glucocorticoid Receptor (Homo sapiens, UniProt P04150); experiment: Competition Binding in IM-9 Human Glucocorticoid Receptor (GR IM-9); settings: cytosol from IM-9 cell line, 1.5 nM [3H]-Dexamethasone, 4° C. for 6 hours
T1 construct: endogenous in cells; host or cells: cytosol from IM-9 cell line
T1 sequence (P04150 1-777): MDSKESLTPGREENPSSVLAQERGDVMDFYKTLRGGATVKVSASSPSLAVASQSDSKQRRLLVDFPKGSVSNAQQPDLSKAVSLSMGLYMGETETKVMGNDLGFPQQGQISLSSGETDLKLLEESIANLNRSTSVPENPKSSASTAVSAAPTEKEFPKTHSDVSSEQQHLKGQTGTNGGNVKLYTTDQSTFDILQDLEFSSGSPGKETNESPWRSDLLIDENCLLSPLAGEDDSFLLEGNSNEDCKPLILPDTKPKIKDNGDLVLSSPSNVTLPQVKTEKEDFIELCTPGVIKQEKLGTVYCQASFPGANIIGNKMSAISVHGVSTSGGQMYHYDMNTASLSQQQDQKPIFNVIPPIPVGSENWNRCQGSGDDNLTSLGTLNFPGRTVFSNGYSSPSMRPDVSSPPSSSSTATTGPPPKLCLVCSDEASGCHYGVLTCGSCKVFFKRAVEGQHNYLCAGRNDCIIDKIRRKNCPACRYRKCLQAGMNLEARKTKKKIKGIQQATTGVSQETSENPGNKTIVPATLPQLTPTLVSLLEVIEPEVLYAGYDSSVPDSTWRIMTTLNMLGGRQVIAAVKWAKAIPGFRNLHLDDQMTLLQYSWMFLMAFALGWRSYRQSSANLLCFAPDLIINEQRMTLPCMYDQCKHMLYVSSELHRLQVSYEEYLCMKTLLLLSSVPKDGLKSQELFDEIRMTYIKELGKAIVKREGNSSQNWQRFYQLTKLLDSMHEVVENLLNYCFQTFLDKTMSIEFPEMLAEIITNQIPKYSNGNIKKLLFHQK
Outline: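 Radioligand competition using 100 μg IM-9 cell cytosol and 1.5 nM [3H]-dexamethasone, incubated 6 h at 4° C in TES/molybdate buffer, pH 7.4. Filtration on PEI-treated GF/B filters, scintillation counting; nonspecific binding defined with 10 μM triamcinolone.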

human androgen receptor = molecular target: T2, human androgen receptor (Homo sapiens, UniProt P10275, T878A); experiment: Human Androgen Receptor Binding (radioligand binding, LnCap prostate cancer cell line); settings: LnCap cells, displacement of [^3H]-methyltrienolone, 2 hours at 37° C.; read-out: AR LNCaP
T2 construct: endogenously expressed human androgen receptor using the LnCap prostate cancer cell line; endogenous in cells; host or cells: LNCaP prostate cancer cell line (whole cells)
T2 sequence (P10275 1-920 T878A): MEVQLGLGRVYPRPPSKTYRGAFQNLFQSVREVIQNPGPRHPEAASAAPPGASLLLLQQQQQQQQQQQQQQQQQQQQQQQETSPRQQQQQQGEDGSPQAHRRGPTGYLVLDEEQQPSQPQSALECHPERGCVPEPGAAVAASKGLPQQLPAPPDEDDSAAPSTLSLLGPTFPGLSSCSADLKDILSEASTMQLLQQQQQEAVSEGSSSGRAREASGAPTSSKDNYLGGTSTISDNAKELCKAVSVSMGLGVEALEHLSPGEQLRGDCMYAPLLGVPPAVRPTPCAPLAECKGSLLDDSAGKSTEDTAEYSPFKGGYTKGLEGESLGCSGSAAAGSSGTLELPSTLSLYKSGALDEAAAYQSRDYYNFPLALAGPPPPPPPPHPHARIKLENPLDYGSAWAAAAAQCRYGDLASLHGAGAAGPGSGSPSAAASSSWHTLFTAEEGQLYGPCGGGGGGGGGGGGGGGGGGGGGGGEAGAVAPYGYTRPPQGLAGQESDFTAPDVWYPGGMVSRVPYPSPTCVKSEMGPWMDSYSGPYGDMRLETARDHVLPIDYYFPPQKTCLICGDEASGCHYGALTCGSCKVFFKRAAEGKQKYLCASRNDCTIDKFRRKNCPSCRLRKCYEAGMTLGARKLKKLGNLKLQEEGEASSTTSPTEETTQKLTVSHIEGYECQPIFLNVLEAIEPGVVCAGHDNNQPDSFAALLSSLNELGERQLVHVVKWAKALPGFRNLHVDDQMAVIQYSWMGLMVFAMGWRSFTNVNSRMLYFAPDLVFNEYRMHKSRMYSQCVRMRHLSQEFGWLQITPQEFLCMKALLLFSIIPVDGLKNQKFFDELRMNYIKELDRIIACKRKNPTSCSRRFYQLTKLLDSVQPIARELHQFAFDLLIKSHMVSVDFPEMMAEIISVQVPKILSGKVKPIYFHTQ
Protocol: Human Androgen Receptor Binding
Radioligand binding studies were carried out on endogenously expressed human androgen receptor using the LnCap prostate cancer cell line. The test is based on measuring radioactively labelled AR ligand [^3H]-methyltrienolone that gets displaced by increasing concentrations of test compound. The test is performed in 96-well plates (Falcon, #353072). Positive and negative controls are also required in each analyzed plate to evaluate the total and non-specific binding binding of the radioligand to the receptor. Cells (60000 per well) were incubated for 24 hours before executing the experiment at 37° C. and in a 5% CO2 atmosphere. Medium was replaced by assay buffer (RPMI-640 (ATCC #30-2001) supplemented with 0.1% bovine serum albumin (Sigma #8806-56) and Triamcinolone acetonide (Sigma #T6501)). The compounds at the desired concentrations and [^3H]methyltrienolone (Perkin Elmer #NET590) were added to the wells.
In order to obtain a dose-response curve and calculate the potency of inhibition (expressed as IC50) for AR, a series of 1:10 dilutions in test in 1× buffer from 10 μM to 0.1 nM for each compound was carried out.
Cells were incubated for 2 hours at 37° C. in a 5% CO2 atmosphere and then washed twice with ice-cold HBSS. Then cells were lysed with solubilization buffer (Hank's Balanced Salt Solution (HBSS, Sigma #H6648), 0.5% Sodium dodecyl sulfate 0.5% (SDS, Sigma #L7390-500G, Lote: 078K0102) and 20% Glycerol (Sigma Aldrich, #G2025) for 30 minutes at RT. 75 μL aliquots were taken from each well and transferred to a 96-well flexiplate (Perkin Elmer #1450-401) and mixed with 100 μL of scintillation cocktail (Optiphase supermix, PerkinElmer, #1200-439). Plates are shaken for 60 minutes and radioactivity was measured in a beta scintillation counter (Microbeta Trilux, Perkin Elmer).

| Compound | pIC50 [1] | pIC50 (human androgen receptor) |
| --- | --- | --- |
| CC(=O)C1=C(C)NC(C(F)(F)F)=C(C(=O)OCc2ccccc2)C1c1csc2ncccc12 (stereo not drawn) [Example C56, Benzyl 5-acetyl-6-methyl-4-(thieno[2,3-b]pyridin-3-yl)-2-(trifluoromethyl)-1,4-dihydropyridine-3-carboxylate] | > 7.00 | 6.00 to 7.00 |
| CC(=O)C1=C(C)NC(C)=C(C(=O)OC2CCC(C)(C)CC2)C1c1csc2ncccc12 (stereo not drawn) [Example C76, 4,4-dimethylcyclohexyl 5-acetyl-2,6-dimethyl-4-(thieno[2,3-b]pyridin-3-yl)-1,4-dihydropyridine-3-carboxylate] | > 7.00 | ≤ 6.00 |
| CC(=O)C1=C(C)NC(C)=C(C(=O)OC2CCOCC2)C1c1csc2ncccc12 (stereo not drawn) [Example C78, Tetrahydro-2H-pyran-4-yl 5-acetyl-2,6-dimethyl-4-(thieno[2,3-b]pyridin-3-yl)-1,4-dihydropyridine-3-carboxylate] | 6.00 to 7.00 | ≤ 6.00 |
| COC(=O)C1=C(C#N)NC(C2CC2)=C(C(=O)OC)C1c1csc2c(C#N)cccc12 (stereo not drawn) [Example C112, Dimethyl 2-cyano-4-(7-cyanobenzo[b]thiophen-3-yl)-6-cyclopropyl-1,4-dihydropyridine-3,5-dicarboxylate] | > 7.00 | 6.00 to 7.00 |
| COC(=O)C1=C(C)NC(C#N)=C(C(=O)OC)C1c1csc2c(C#N)cccc12 (stereo not drawn) [Example C113, Dimethyl 2-cyano-4-(7-cyanobenzo[b]thiophen-3-yl)-6-methyl-1,4-dihydropyridine-3,5-dicarboxylate] | > 7.00 | 6.00 to 7.00 |
| COC(=O)C1=C(C)NC(CO)=C(C(=O)OC)C1c1csc2c(C#N)cccc12 (stereo not drawn) [Example C120, Dimethyl 4-(7-cyanobenzo[b]thiophen-3-yl)-2-(hydroxymethyl)-6-methyl-1,4-dihydropyridine-3,5-dicarboxylate] | > 7.00 | 6.00 to 7.00 |
| COC(=O)C1=C(C)NC(N)=C(C(=O)OCc2ccc(F)cc2)C1c1csc2c(C#N)cccc12 (stereo not drawn) [Example D22, 3-(4-fluorobenzyl) 5-methyl 2-amino-4-(7-cyanobenzo[b]thiophen-3-yl)-6-methyl-1,4-dihydropyridine-3,5-dicarboxylate] | > 7.00 | ≤ 6.00 |
| COC(=O)C1=C(C2CC2)NC(N)=C(C(=O)OCc2ccc(F)cc2)C1c1csc2c(C#N)cccc12 (stereo not drawn) [Example D23, 3-(4-fluorobenzyl) 5-methyl 2-amino-4-(7-cyanobenzo[b]thiophen-3-yl)-6-cyclopropyl-1,4-dihydropyridine-3,5-dicarboxylate] | > 7.00 | 6.00 to 7.00 |
| CC1=C(C#N)C(c2csc3c(C#N)cccc23)C(C(=O)OCc2ccc(F)cc2)=C(N)N1 (stereo not drawn) [Example D25, 4-Fluorobenzyl 2-amino-5-cyano-4-(7-cyanobenzo[b]thiophen-3-yl)-6-methyl-1,4-dihydropyridine-3-carboxylate] | > 7.00 | ≤ 6.00 |
| N#CC1=C(N)NC(C2CC2)=C(C(=O)OCC2CC2)C1c1csc2c(C#N)cccc12 (stereo not drawn) [Example D26, Cyclopropylmethyl 6-amino-5-cyano-4-(7-cyanobenzo[b]thiophen-3-yl)-2-cyclopropyl-1,4-dihydropyridine-3-carboxylate] | 6.00 to 7.00 | 6.00 to 7.00 |
| COC(=O)C1=C(C2CC2)NC(N)=C(C(=O)OCC2CC2(F)F)C1c1csc2c(C#N)cccc12 (stereo not drawn) [Example D38, 3-((2,2-Difluorocyclopropyl)methyl) 5-methyl 2-amino-4-(7-cyanobenzo[b]thiophen-3-yl)-6-cyclopropyl-1,4-dihydropyridine-3,5-dicarboxylate] | > 7.00 | 6.00 to 7.00 |
| COC(=O)C1=C(C)NC(N)=C(C(=O)OCC2CC2)C1c1csc2c(C#N)ccc(F)c12 (stereo not drawn) [Example D40, 3-(cyclopropylmethyl) 5-methyl 2-amino-4-(7-cyano-4-fluorobenzo[b]thiophen-3-yl)-6-methyl-1,4-dihydropyridine-3,5-dicarboxylate] | > 7.00 | 6.00 to 7.00 |

More lines, now with the values ahead:

| pIC50 [1] | pIC50 (human androgen receptor) | Compound |
| --- | --- | --- |
| > 7.00 | > 7.00 | CC(=O)C1=C(C(=O)OCC2CC2)C(c2csc3c(C#N)cccc23)C(C(C)=O)=C(C)N1 (stereo not drawn) [Example C123, Cyclopropylmethyl 2,5-diacetyl-4-(7-cyanobenzo[b]thiophen-3-yl)-6-methyl-1,4-dihydropyridine-3-carboxylate] |
| > 7.00 | 6.00 to 7.00 | CC(=O)C1=C(C)NC(N)=C(C(=O)OC2CCCCC2)C1c1csc2c(C#N)cccc12 (stereo not drawn) [Example D29, Cyclohexyl 5-acetyl-2-amino-4-(7-cyanobenzo[b]thiophen-3-yl)-6-methyl-1,4-dihydropyridine-3-carboxylate] |
| > 7.00 | 6.00 to 7.00 | COC(=O)C1=C(C)NC(N)=C(C(=O)OCC2CCC2)C1c1csc2c(C#N)cccc12 (stereo not drawn) [Example D33, 3-(Cyclobutylmethyl) 5-methyl 2-amino-4-(7-cyanobenzo[b]thiophen-3-yl)-6-methyl-1,4-dihydropyridine-3,5-dicarboxylate] |
| > 7.00 | 6.00 to 7.00 | COC(=O)C1=C(C)NC(N)=C(C(=O)OCC2CC(F)(F)C2)C1c1csc2c(C#N)cccc12 (stereo not drawn) [Example D34, 3-((3,3-Difluorocyclobutyl)methyl) 5-methyl 2-amino-4-(7-cyanobenzo[b]thiophen-3-yl)-6-methyl-1,4-dihydropyridine-3,5-dicarboxylate] |
| 6.00 to 7.00 | 6.00 to 7.00 | CC1=C(C(N)=O)C(c2csc3c(C#N)cccc23)C(C(=O)OCC2CC2)=C(N)N1 (stereo not drawn) [Example D35, Cyclopropylmethyl 2-amino-5-carbamoyl-4-(7-cyanobenzo[b]thiophen-3-yl)-6-methyl-1,4-dihydropyridine-3-carboxylate] |
| > 7.00 | 6.00 to 7.00 | COC(=O)C1=C(C)NC(N)=C(C(=O)OCC2CC2(F)F)C1c1csc2c(C#N)cccc12 (stereo not drawn) [Example D36, 3-((2,2-Difluorocyclopropyl)methyl) 5-methyl 2-amino-4-(7-cyanobenzo[b]thiophen-3-yl)-6-methyl-1,4-dihydropyridine-3,5-dicarboxylate] |

Source: patent US11453660B2, “Androgen receptor and glucocorticoid receptor modulators” (ONCOSTELLAE, S.L., priority 2017, dated 2022)
